Measured values: patent US20250332300A1 (priority 2024, published 2025)
pIC50: −log10 of the molar value. Counter-ions that a name gives are not always drawn. Like-named read-outs stand apart in the source and are kept apart here. Positions of bridges follow the written chain, without caps; N, C: chain ends. Non-standard residues stand in square brackets, D forms with d. Residues, ends and D or L forms follow the SMILES beside them. *: point of attachment. DOTA = O=C(O)CN1CCN(CC(=O)O)CCN(CC(=O)*)CCN(CC(=O)O)CC1; Trp(5-OH) = N[C@@H](Cc1c[nH]c2ccc(O)cc12)C(=O)O; NMePhe(4-F) = CN[C@@H](Cc1ccc(F)cc1)C(=O)O; NMehPhe = CN[C@@H](CCc1ccccc1)C(=O)O; Aad = N[C@@H](CCCC(=O)O)C(=O)O; Gly(cPr) = N[C@H](C(=O)O)C1CC1; NMeK = CN[C@@H](CCCCN)C(=O)O; NMeDap = CN[C@@H](CN)C(=O)O

How the values were obtained:
human HER2 (23-652) = human HER2 (23-652) (Homo sapiens, UniProt P04626); experiment: TR-FRET competition assay for peptide potency, human HER2; assay type: binding; set-up: towards human HER2 (23-652) and mouse HER2 (23-653); made in house; host or cells: mammalian cells; settings: read-out: huHER2 TR-FRET IC50
Protocol: (§1) Both proteins containing a His-, Avi-tag and biotin in Nterminus, were expressed in mammalian cells and produced in house. […] Standard assay conditions consist of 20 uL total volume in white 384-well plates (Greiner), in 10 mM HEPES buffer containing 150 mM NaCl, 3 mM EDTA, 0.05% Tween20 and 1% final DMSO. […] The ratiometric FRET assay readout is calculated from the ratio of the raw data of the two distinct fluorescence signals measured in time resolved mode (fluorescence 665 nm/fluorescence 620 nm). IC50 values were calculated with the standard Novartis in-house assay data analysis software (Helios software application, Novartis Institutes for BioMedical Research, unpublished) using the methods described in Comput. Methods. Programs. Biomed. 2006, 82, 31-37 (regression algorithms for nonlinear dose-response curve fitting).

mouse HER2 (23-653) = mouse HER2 (23-653) (Mus musculus, UniProt P70424); experiment: TR-FRET competition assay for peptide potency, mouse HER2; assay type: binding; set-up: mouse HER2 (23-653) using a Cy5 labeled peptide as a probe; made in house; host or cells: mammalian cells; settings: TR-FRET competition with Cy5 labeled peptide probe, 0.1 nM mouse HER2, 24 h incubation; read-out: moHER2 TR-FRET IC50
Protocol: as §1

[1] = TR-FRET competition with Cy5 labeled peptide probe, 0.1 nM human HER2, 24 h incubation

pIC50 (human HER2 (23-652))	SMILES	pIC50 (mouse HER2 (23-653))	pIC50 (human HER2 (23-652); [1])
5.08	CC(=O)NCCCC[C@H]1C(=O)N[C@@H](Cc2c[nH]c3ccc(O)cc23)C(=O)N[C@@H](Cc2c[nH]c3ccccc23)C(=O)N[C@@H](C2CC2)C(=O)N(C)[C@H](C(=O)N(C)[C@@H](Cc2ccc(F)cc2)C(=O)N[C@@H](CCCCN)C(N)=O)CNC(=O)CCC[C@H](NC(C)=O)C(=O)N[C@H](Cc2ccc(O)cc2)C(=O)N[C@H](CO)C(=O)N(C)[C@@H](CCc2ccccc2)C(=O)N1C [Example A48, TFA salt]	< 5.00	–
–	CC(=O)NCCCC[C@H]1C(=O)N[C@@H](Cc2c[nH]c3ccc(O)cc23)C(=O)N[C@@H](Cc2c[nH]c3ccccc23)C(=O)N[C@@H](C2CC2)C(=O)N(C)[C@H](C(=O)N(C)[C@@H](Cc2ccc(F)cc2)C(=O)N[C@@H](CCCCNC(=O)CN2CCN(CC(=O)O)CCN(CC(=O)O)CCN(CC(=O)O)CC2)C(N)=O)CNC(=O)CCC[C@H](NC(C)=O)C(=O)N[C@H](Cc2ccc(O)cc2)C(=O)N[C@H](CO)C(=O)N(C)[C@@H](CCc2ccccc2)C(=O)N1C [Example C3]	< 5.00	< 5.02
–	CC(=O)NCCCC[C@H]1C(=O)N[C@@H](Cc2c[nH]c3ccc(O)cc23)C(=O)N[C@@H](Cc2c[nH]c3ccccc23)C(=O)N[C@@H](C2CC2)C(=O)N(C)[C@H](C(=O)N(C)[C@@H](Cc2ccc(F)cc2)C(N)=O)CNC(=O)CCC[C@H](NC(=O)CN2CCN(CC(=O)O)CCN(CC(=O)O)CCN(CC(=O)O)CC2)C(=O)N[C@@H](Cc2ccc(O)cc2)C(=O)N[C@@H](CO)C(=O)N(C)[C@@H](CCc2ccccc2)C(=O)N1C [Example C8] ({DOTA}-[Aad]YS[NMehPhe][NMeK](Ac)[Trp(5-OH)]W[Gly(cPr)][NMeDap][NMePhe(4-F)]-NH2; lactam 1-9)	8.48	8.68
–	CC(=O)N[C@H]1CCCC(=O)NC[C@@H](C(=O)N(C)[C@@H](Cc2ccc(F)cc2)C(=O)N[C@@H](CCCCNC(=O)CN2CCN(CC(=O)O)CCN(CC(=O)O)CCN(CC(=O)O)CC2)C(N)=O)N(C)C(=O)[C@H](C2CC2)NC(=O)[C@H](Cc2c[nH]c3ccccc23)NC(=O)[C@H](Cc2c[nH]c3ccc(O)cc23)NC(=O)[C@H](CCCCNC(=O)CO)N(C)C(=O)[C@H](CCc2ccccc2)N(C)C(=O)[C@H](CO)NC(=O)[C@H](Cc2ccc(O)cc2)NC1=O [Example C20]	9.52	10.00
–	CC(=O)NCCCC[C@H]1C(=O)N[C@@H](Cc2c[nH]c3ccc(O)cc23)C(=O)N[C@@H](C)C(=O)N[C@@H](C2CC2)C(=O)N(C)[C@H](C(=O)N(C)[C@@H](Cc2ccc(F)cc2)C(=O)N[C@@H](CCCCNC(=O)CN2CCN(CC(=O)O)CCN(CC(=O)O)CCN(CC(=O)O)CC2)C(N)=O)CNC(=O)CCC[C@H](NC(C)=O)C(=O)N[C@@H](Cc2ccc(O)cc2)C(=O)N[C@@H](CO)C(=O)N(C)[C@@H](CCc2ccccc2)C(=O)N1C [Example C32] (Ac-[Aad]YS[NMehPhe][NMeK](Ac)[Trp(5-OH)]A[Gly(cPr)][NMeDap][NMePhe(4-F)]K(DOTA)-NH2; lactam 1-9)	< 5.00	5.01
